Experimental data: article PMC8987054, “Structural basis for PoxtA-mediated resistance to phenicol and oxazolidinone antibiotics” (Nature Communications, 2022)
Values after ≈ are worked out from the molar mass of the structure shown. Where two headings read alike, the source gives them in different places.

Tests used:
E. faecium 9-F-6 [1] = system: T1, E. faecium 9-F-6; assay: microbe, parasite or virus in culture; design: Gradient test MIC (MIC Test Strip, Liofilchem), multidrug-resistant clinical isolate; conditions: Enterococcus faecium, 9F6, read-out: MIC GRAD
T1 construct: 9-F-6 (ST872)
From the text: (§1) ST872 is a single locus variant of ST80 which is a pandemic hospital-adapted genetic lineage. […] The results (MICs) were interpreted according to EUCAST clinical breakpoints v.

E. faecium 9-F-6 [2] = system: T1, E. faecium 9-F-6; assay: microbe, parasite or virus in culture; design: Broth microdilution MIC, EUENCF Sensititre plate, multidrug-resistant clinical isolate; conditions: Enterococcus faecium, 9F6, read-out: MIC BMD
From the text: as §1

Row | SMILES | MIC (E. faecium 9-F-6 [1]) [µg/mL] | MIC (E. faecium 9-F-6 [2]) [µg/mL]
1 | CNC(C)[C@@H]1CC[C@@H](N)[C@@H](O[C@H]2[C@H](O)[C@@H](O[C@H]3OC[C@](C)(O)[C@H](NC)[C@H]3O)[C@H](N)C[C@@H]2N)O1 (some centres unmarked) [Gentamicin] | > 1020 | > 256
2 | CN(C)c1cc(NC(=O)CNC(C)(C)C)c(O)c2c1C[C@H]1C[C@H]3[C@H](N(C)C)C(O)=C(C(N)=O)C(=O)[C@@]3(O)C(O)=C1C2=O [Tigecycline] | – | 0.12 (≈ 0.205 µM)
3 | CC(=O)NC[C@H]1CN(c2ccc(N3CCOCC3)c(F)c2)C(=O)O1 [Linezolid] | – | 8 (≈ 23.7 µM)
4 | CC1(C)S[C@@H]2[C@H](NC(=O)[C@H](N)c3ccc(O)cc3)C(=O)N2[C@H]1C(=O)O [Amoxicillin] | – | > 32
5 | C[C@H]1COc2c(N3CCN(C)CC3)c(F)cc3c(=O)c(C(=O)O)cn1c23 [Levofloxacin] | – | > 16
6 | C[C@@H](O)[C@H]1C(=O)N2C(C(=O)O)=C(SCCNC=N)C[C@H]12 [Imipenem] | – | > 16
7 | CN[C@@H]1[C@H](O[C@H]2[C@H](O[C@H]3[C@H](O)[C@@H](O)[C@H](N=C(N)N)[C@@H](O)[C@@H]3N=C(N)N)O[C@@H](C)[C@]2(O)C=O)O[C@@H](CO)[C@H](O)[C@H]1O [Streptomycin] | – | > 1020
8 | CC1(C)S[C@@H]2[C@H](NC(=O)[C@H](N)c3ccccc3)C(=O)N2[C@H]1C(=O)O [Ampicillin] | > 256 | > 32
9 | O=C(N[C@H](CO)[C@H](O)c1ccc([N+](=O)[O-])cc1)C(Cl)Cl [Chloramphenicol] | 16 (≈ 49.5 µM) | –
10 | CCC[C@@H]1C[C@@H](C(=O)N[C@@H]([C@H]2O[C@H](SC)[C@H](O)[C@@H](O)[C@H]2O)[C@H](C)Cl)N(C)C1 [Clindamycin] | > 256 | –
11 | CN[C@H](CC(C)C)C(=O)N[C@H]1C(=O)N[C@@H](CC(N)=O)C(=O)N[C@H]2C(=O)N[C@H]3C(=O)N[C@H](C(=O)N[C@H](C(=O)O)c4cc(O)cc(O)c4-c4cc3ccc4O)[C@H](O)c3ccc(c(Cl)c3)Oc3cc2cc(c3O[C@@H]2O[C@H](CO)[C@@H](O)[C@H](O)[C@H]2O[C@H]2C[C@](C)(N)[C@H](O)[C@H](C)O2)Oc2ccc(cc2Cl)[C@H]1O [Vancomycin] | > 256 | > 16
